# ChEMBL document CHEMBL5512645, “A novel antimicrobial peptide with broad-spectrum and exceptional stability derived from the natural peptide Brevicidine” (Eur J Med Chem, 2024)
# Activity calls are given as the source filed them. The calls are words filed in the database; no cut-off is given here. Bridge positions count the residues as written; N and C are the ends. Square brackets hold non-standard residues; d marks the D form. Peptide text beside a SMILES is read from it. * marks the point of attachment. ξ: configuration not given here. Hexanoyl(4ξ-Me) = CCC(C)CCC(=O)*; dOrn = NCCC[C@@H](N)C(=O)O; Orn = NCCC[C@H](N)C(=O)O
# What was measured:
# [1] = Toxicity in male BALB/c mouse assessed as survival rate at 90.9 mg/kg, ip measured after 6 days relative to control; assay type: organism-based; settings: in vivo, time 6 day
# Pseudomonas aeruginosa [2] = test: Bactericidal activity against Pseudomonas aeruginosa ATCC 27853 assessed as assessed as eradication of bacterial cells at 1/2 to 1 times MIC measured after 0.5 hr by time killing analysis relative to control; assay type: functional
# [3] = Toxicity in male BALB/c mouse assessed as hemorrhage in kidney at 46.88 mg/kg, ip administered as single dose by H and E staining based analysis; assay type: organism-based; settings: in vivo
# [4] = Toxicity in male BALB/c mouse assessed as survival rate at 42.6 mg/kg, ip measured after 6 days relative to control; assay type: organism-based; settings: in vivo, time 6 day
# Staphylococcus aureus [5] = test: Antibiofilm activity against Staphylococcus aureus ATCC 25923 assessed as biofilm eradication at 1/2 to 4 times MIC measured after 24 hrs by crystal violet staining based analysis; assay type: functional, organism-based
# Pseudomonas aeruginosa [6] = test: Induction of morphological changes in Pseudomonas aeruginosa ATCC 27853 assessed as aggregation at 2 times MIC measured after 0.5 hrs by SEM based analysis; assay type: functional, organism-based
# Pseudomonas aeruginosa [7] = test: Bactericidal activity against Pseudomonas aeruginosa ATCC 27853 assessed as assessed as eradication of bacterial cells at 2 to 4 times MIC measured after 10 mins by time killing analysis; assay type: functional, organism-based
# Staphylococcus aureus [8] = test: Antibacterial activity against Staphylococcus aureus ATCC 25923 assessed as fold increase in MIC pretreated with FeCl3 followed by compound addition and measured after 2 hrs by broth microdilution method; assay type: functional
# Staphylococcus aureus [9] = test: Antibacterial activity against Staphylococcus aureus ATCC 25923 pretreated with Na-cl followed by compound addition and measured after 2 hrs by broth microdilution method (reference value: 8 microM); assay type: functional
# Staphylococcus aureus [10] = test: Induction of morphological changes in Staphylococcus aureus ATCC 25923 assessed as adhesion at 2 times MIC measured after 0.5 hrs by SEM based analysis; assay type: functional, organism-based
# Cell membrane [11] = test: Induction of cytoplasmic membrane depolarization in Pseudomonas aeruginosa ATCC 27853 assessed as increase in fluorescence intensity measured upto 12 min by DiSC3-5 dye based fluorescence method; assay type: cell membranes
# Staphylococcus aureus [12] = test: Antibacterial activity against Staphylococcus aureus ATCC 25923 assessed as fold increase in MIC pretreated with 2.5 to 20% mouse serum followed by compound addition and measured after 1 to 6 hrs by broth microdilution method; assay type: functional; settings: time 1-6 hrs
# [13] = Toxicity in male BALB/c mouse assessed as survival rate at 132.7 mg/kg, ip measured after 6 days relative to control; assay type: organism-based; settings: in vivo, time 6 day
# [14] = Toxicity in male BALB/c mouse assessed as inflammatory cell infiltration in liver at 46.88 mg/kg, ip administered as single dose by H and E staining based analysis; assay type: organism-based; settings: in vivo
# Staphylococcus aureus [15] = test: Antibacterial activity against Staphylococcus aureus ATCC 25923 pretreated with 10% mouse serum followed by compound addition and measured after 6 hrs by broth microdilution method (reference value: 8 microM); assay type: functional
# Staphylococcus aureus [16] = test: Antibacterial activity against Staphylococcus aureus ATCC 25923 pretreated with 20% mouse serum followed by compound addition and measured after 6 hrs by broth microdilution method (reference value: 8 microM); assay type: functional
# Staphylococcus aureus [17] = test: Induction of morphological changes in Staphylococcus aureus ATCC 25923 assessed as leakage of cellular content at 2 times MIC measured after 0.5 hrs by SEM based analysis; assay type: functional, organism-based
# Cell membrane [18] = test: Induction of outer membrane permeabilization in Pseudomonas aeruginosa ATCC 27853 assessed increase in fluorescence intensity at 1/2 MIC measured upto 12 mins by fluorescence based NPN uptake assay; assay type: cell membranes
# Staphylococcus aureus [19] = test: Antibacterial activity against Staphylococcus aureus ATCC 25923 pretreated with 2.5% mouse serum followed by compound addition and measured after 1 hr by broth microdilution method (reference value: 64 microM); assay type: functional
# Staphylococcus aureus [20] = test: Antibacterial activity against Staphylococcus aureus ATCC 25923 pretreated with 20% mouse serum followed by compound addition and measured after 6 hrs by broth microdilution method (reference value: 64 microM); assay type: functional
# Staphylococcus aureus [21] = test: Antibacterial activity against Staphylococcus aureus ATCC 25923 pretreated with Fecl3 followed by compound addition and measured after 2 hrs by broth microdilution method (reference value: 64 microM); assay type: functional
# Cell membrane [22] = test: Induction of cytoplasmic membrane depolarization in Pseudomonas aeruginosa ATCC 27853 assessed as increase in fluorescence intensity at 2 to 4 times MIC measured upto 12 min by DiSC3-5 dye based fluorescence method; assay type: cell membranes
# Staphylococcus aureus [23] = test: Antibacterial activity against Staphylococcus aureus ATCC 25923 assessed as fold increase in MIC pretreated with 2.5 to 20% mouse serum followed by compound addition and measured after 1 hr by broth microdilution method; assay type: functional
# Staphylococcus aureus [24] = test: Antibacterial activity against Staphylococcus aureus ATCC 25923 pretreated with 5% mouse serum followed by compound addition and measured after 6 hrs by broth microdilution method (reference value: 64 microM); assay type: functional
# Pseudomonas aeruginosa [25] = test: Antimicrobial activity against Pseudomonas aeruginosa ATCC 27853 assessed as reduction in microbial growth at 2 times MIC measured for 18 hrs in presence of 64 microg/ml LPS; assay type: functional, organism-based
# Staphylococcus aureus [26] = test: Antibacterial activity against Staphylococcus aureus ATCC 25923 pretreated with Mgcl2 followed by compound addition and measured after 2 hrs by broth microdilution method (reference value: 64 microM); assay type: functional
# Staphylococcus aureus [27] = test: Antibacterial activity against Staphylococcus aureus ATCC 25923 pretreated with Zncl2 followed by compound addition and measured after 2 hrs by broth microdilution method (reference value: 64 microM); assay type: functional
# Cell membrane [28] = test: Induction of outer membrane permeabilization in Pseudomonas aeruginosa ATCC 27853 assessed increase in fluorescence intensity at 1 MIC measured upto 12 mins by fluorescence based NPN uptake assay; assay type: cell membranes
# Staphylococcus aureus [29] = test: Induction of morphological changes in Staphylococcus aureus ATCC 25923 assessed as membrane rupture at 2 times MIC measured after 0.5 hrs by SEM based analysis; assay type: functional, organism-based
# Staphylococcus aureus [30] = test: Antibacterial activity against Staphylococcus aureus ATCC 25923 pretreated with Na-cl followed by compound addition and measured after 2 hrs by broth microdilution method (reference value: 16 microM); assay type: functional, organism-based
# Staphylococcus aureus [31] = test: Antibacterial activity against Staphylococcus aureus ATCC 25923 pretreated with 10% mouse serum followed by compound addition and measured after 1 hr by broth microdilution method (reference value: 16 microM); assay type: functional, organism-based
# Staphylococcus aureus [32] = test: Antibacterial activity against Staphylococcus aureus ATCC 25923 pretreated with 5% mouse serum followed by compound addition and measured after 6 hrs by broth microdilution method (reference value: 16 microM); assay type: functional, organism-based
# Staphylococcus aureus [33] = test: Antibacterial activity against Staphylococcus aureus ATCC 25923 pretreated with 20% mouse serum followed by compound addition and measured after 6 hrs by broth microdilution method (reference value: 16 microM); assay type: functional, organism-based
# Cell membrane [34] = test: Induction of outer membrane permeabilization in Pseudomonas aeruginosa ATCC 27853 assessed increase in fluorescence intensity at 1/2 to 4 times MIC by fluorescence based NPN uptake assay; assay type: cell membranes; settings: time <= 12.0 min, TDE = time-dependent effect
# Staphylococcus aureus [35] = test: Antibacterial activity against Staphylococcus aureus ATCC 25923 pretreated with 2.5% mouse serum followed by compound addition and measured after 6 hrs by broth microdilution method (reference value: 16 microM); assay type: functional, organism-based
# Cell membrane [36] = test: Induction of cytoplasmic membrane depolarization in Pseudomonas aeruginosa ATCC 27853 assessed as increase in fluorescence intensity at 4 times MIC measured upto 12 min by DiSC3-5 dye based fluorescence method; assay type: cell membranes
compound,measurement,setting,value
CCCCCCCCCC(=O)N[C@H](CCCN)C(=O)N[C@H](Cc1ccc(O)cc1)C(=O)N[C@H](Cc1c[nH]c2ccccc12)C(=O)N[C@H](CCCN)C(=O)N[C@@H](CCCN)C(=O)NCC(=O)N[C@H](CCCN)C(=O)N[C@@H](Cc1c[nH]c2ccccc12)C(=O)N[C@H](C(=O)N[C@H](C(=O)NCC(=O)N[C@@H](CO)C(=O)O)[C@@H](C)CC)[C@@H](C)O,survival at 144 h,[1],12.5%
same,Activity,Pseudomonas aeruginosa [2],100%
same,Activity,[3],Toxic
same,survival at 144 h,[4],50%
same,Activity,Staphylococcus aureus [5],Active
same,Activity,Pseudomonas aeruginosa [6],Active
same,Activity,Pseudomonas aeruginosa [7],Active
same,fold change (FC),Staphylococcus aureus [8],2
same,MIC,Staphylococcus aureus [9],16 µM
same,Activity,Staphylococcus aureus [10],Active
same,Activity,Cell membrane [11],Dose-Dependent Effect
same,fold change (FC),Staphylococcus aureus [12],4
same,survival at 144 h,[13],0%
same,Activity,[14],Toxic
same,MIC,Staphylococcus aureus [15],32 µM
same,MIC,Staphylococcus aureus [16],> 128 µM
CCC(C)CCC(=O)N[C@H](CC(N)=O)C(=O)N[C@H](Cc1ccc(O)cc1)C(=O)N[C@H](Cc1c[nH]c2ccccc12)C(=O)N[C@H](CCCN)C(=O)N[C@@H](CCCN)C(=O)NCC(=O)N[C@H](CCCN)C(=O)N[C@@H](Cc1c[nH]c2ccccc12)C(=O)N[C@@H]1C(=O)N[C@@H]([C@@H](C)CC)C(=O)NCC(=O)N[C@@H](CO)C(=O)O[C@@H]1C (stereo partly specified) ({Hexanoyl(4ξ-Me)}-[dN][dY][dW][dOrn][Orn]G[dOrn]WTIGS; ester 9-C),Activity,Staphylococcus aureus [17],Active
same,Activity,Cell membrane [18],inactive
same,MIC,Staphylococcus aureus [19],64 µM
same,MIC,Staphylococcus aureus [20],128 µM
same,MIC,Staphylococcus aureus [21],64 µM
same,Activity,Cell membrane [22],Active
same,fold change (FC),Staphylococcus aureus [23],2
same,MIC,Staphylococcus aureus [24],128 µM
same,Activity,Pseudomonas aeruginosa [25],inactive
same,MIC,Staphylococcus aureus [26],64 µM
same,MIC,Staphylococcus aureus [27],64 µM
same,Activity,Cell membrane [28],Active
same,Activity,Staphylococcus aureus [29],Active
POLYMYXIN B,MIC,Staphylococcus aureus [30],16 µM
same,MIC,Staphylococcus aureus [31],16 µM
same,MIC,Staphylococcus aureus [32],16 µM
same,MIC,Staphylococcus aureus [33],16 µM
same,Activity,Cell membrane [34],Tde
same,MIC,Staphylococcus aureus [35],16 µM
same,Activity,Cell membrane [36],inactive
